Test results as given in the supplement of paper PMC7224384.

Legend:
MDA-MB-453 [1] = assay: drug sensitivity score (DSS), single agent (DSS (weighted AUC score)); higher = more sensitive (stronger viability decrease); extreme values may be limits of the assay; conditions: BLU9931 0 nM; 72 h
Outline: (§1)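 Each 384-well plate held compounds from the FIMM Oncology set, predispensed in singlicate at five 10-fold dilutions spanning a 10,000-fold range, and each well then received 2000 MDA-MB-453 cells in medium with or without an FGFR4 inhibitor at 100 nM final. Plates stayed at 37 °C, 5% CO2 for 72 h, after which cellular ATP was measured with CellTiterGlo 2.0. Readings were converted per plate into percent viability against control wells, and the drug sensitivity score was taken as a weighted area under a four-parameter logistic fit.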

MDA-MB-453 [2] = assay: drug sensitivity score (DSS), in combination with BLU9931 (DSS (weighted AUC score)); higher = more sensitive (stronger viability decrease); extreme values may be limits of the assay; conditions: BLU9931 100 nM; 72 h
Outline: as §1

## Cc1cc(OCc2nnc(SC3CCCC3)n2-c2cccnc2)ccc1-c1ccc(S(C)(=O)=O)cc1 [NMS-873]
MDA-MB-453 [1]
  drug sensitivity score: 11.4
MDA-MB-453 [2]
  drug sensitivity score: 9.1

## Cc1cc2c(C(=O)NC[C@H](C)c3ccccc3)c(O)c(O)cc2c(O)c1-c1c(C)cc2c(C(=O)NC[C@H](C)c3ccccc3)c(O)c(O)cc2c1O [Sabutoclax]
MDA-MB-453 [1]
  drug sensitivity score: 12.6
MDA-MB-453 [2]
  drug sensitivity score: 12.4

## O=C(O)c1ccc(CN2CCC(CN[C@@H]3C[C@H]3c3ccccc3)CC2)cc1
MDA-MB-453 [1]
  drug sensitivity score: 0.3
MDA-MB-453 [2]
  drug sensitivity score: 0

## COc1cc2nccc(Oc3ccc(NC(=O)NC4CC4)c(Cl)c3)c2cc1C(N)=O [Lenvatinib]
MDA-MB-453 [1]
  drug sensitivity score: 3.9
MDA-MB-453 [2]
  drug sensitivity score: 0.9

## CCCCOc1nc(N)c2c(n1)N(Cc1cccc(CN3CCCC3)c1)CC(=O)N2 [Vesatolimod]
MDA-MB-453 [1]
  drug sensitivity score: 3
MDA-MB-453 [2]
  drug sensitivity score: 0

## CO[C@H]1C[C@@H]2CC[C@@H](C)[C@@](O)(O2)C(=O)C(=O)N2CCCC[C@H]2C(=O)O[C@H]([C@H](C)C[C@@H]2CC[C@@H](OC(=O)C(C)(CO)CO)[C@H](OC)C2)CC(=O)[C@H](C)/C=C(\C)[C@@H](O)[C@@H](OC)C(=O)[C@H](C)C[C@H](C)/C=C/C=C/C=C/1C [Temsirolimus]
MDA-MB-453 [1]
  drug sensitivity score: 10.3
MDA-MB-453 [2]
  drug sensitivity score: 14.8

## Cc1cnc(-c2ccccc2C(C)C)nc1NCc1ccc(-n2ccnn2)cc1 [ML323]
MDA-MB-453 [1]
  drug sensitivity score: 0.4
MDA-MB-453 [2]
  drug sensitivity score: 0

## COc1cc2c(NC3CCN(C(C)C)CC3)nc(C3CCCCC3)nc2cc1OCCCN1CCCC1 [UNC0638]
MDA-MB-453 [1]
  drug sensitivity score: 0
MDA-MB-453 [2]
  drug sensitivity score: 4.9

## CC[C@H](Nc1ncnc2[nH]cnc12)c1nc2cccc(F)c2c(=O)n1-c1ccccc1 [Idelalisib]
MDA-MB-453 [1]
  drug sensitivity score: 1.7
MDA-MB-453 [2]
  drug sensitivity score: 2

## COc1cc2c(Nc3ccc(Cl)c(Cl)c3F)ncnc2cc1OC[C@@H]1C[C@@H]2CN(C)C[C@@H]2C1 [Tesevatinib]
MDA-MB-453 [1]
  drug sensitivity score: 7.6
MDA-MB-453 [2]
  drug sensitivity score: 11.5

## Cn1c(Nc2ccc(C(F)(F)F)cc2)nc2cc(Oc3ccnc(-c4ncc(C(F)(F)F)[nH]4)c3)ccc21 [NVP-RAF265]
MDA-MB-453 [1]
  drug sensitivity score: 1.7
MDA-MB-453 [2]
  drug sensitivity score: 1.1

## CCCCc1nc2cc(/C=C/C(=O)NO)ccc2n1CCN(CC)CC [Pracinostat]
MDA-MB-453 [1]
  drug sensitivity score: 22.3
MDA-MB-453 [2]
  drug sensitivity score: 19.8

## Cc1ccc(NC(=O)c2ccc(CN3CCN(C)CC3)cc2)cc1Nc1nccc(-c2cccnc2)n1 [Imatinib]
MDA-MB-453 [1]
  drug sensitivity score: 0.9
MDA-MB-453 [2]
  drug sensitivity score: 0.1

## CC(C)c1c(C(=O)Nc2ccccc2)c(-c2ccccc2)c(-c2ccc(F)cc2)n1CC[C@@H](O)C[C@@H](O)CC(=O)O [Atorvastatin]
MDA-MB-453 [1]
  drug sensitivity score: 0
MDA-MB-453 [2]
  drug sensitivity score: 0

## NC(=O)/C(=C/n1cnc(-c2cc(C(F)(F)F)cc(C(F)(F)F)c2)n1)c1cncnc1 [Eltanexor]
MDA-MB-453 [1]
  drug sensitivity score: 13.8
MDA-MB-453 [2]
  drug sensitivity score: 14.2

## COc1cc(NS(C)(=O)=O)ccc1Nc1c2ccccc2nc2ccccc12 [Amsacrine]
MDA-MB-453 [1]
  drug sensitivity score: 1.2
MDA-MB-453 [2]
  drug sensitivity score: 2

## C[C@]1(c2nc3c(C(N)=O)cccc3[nH]2)CCCN1 [Veliparib]
MDA-MB-453 [1]
  drug sensitivity score: 1.6
MDA-MB-453 [2]
  drug sensitivity score: 2.9

## OC[C@H]1O[C@@H](n2cnc3c2N=CNC[C@H]3O)C[C@@H]1O [Pentostatin]
MDA-MB-453 [1]
  drug sensitivity score: 1
MDA-MB-453 [2]
  drug sensitivity score: 0

## CC(C)NC[C@@H](C(=O)N1CCN(c2ncnc3c2[C@H](C)C[C@H]3O)CC1)c1ccc(Cl)cc1 [Ipatasertib]
MDA-MB-453 [1]
  drug sensitivity score: 11
MDA-MB-453 [2]
  drug sensitivity score: 12

## CCOCc1nc2c(N)nc3ccccc3c2n1CC(C)(C)O [Resiquimod]
MDA-MB-453 [1]
  drug sensitivity score: 0.9
MDA-MB-453 [2]
  drug sensitivity score: 0

## O=C(O)c1ccc2c(c1)nc(Nc1cccc(Cl)c1)c1ccncc12 [Silmitasertib]
MDA-MB-453 [1]
  drug sensitivity score: 8.1
MDA-MB-453 [2]
  drug sensitivity score: 7.6

## CN(C)C[C@@H]1CCn2cc(c3ccccc32)C2=C(C(=O)NC2=O)c2cn(c3ccccc23)CCO1 [Ruboxistaurin]
MDA-MB-453 [1]
  drug sensitivity score: 5.3
MDA-MB-453 [2]
  drug sensitivity score: 6.7

## CCS(=O)(=O)N1CCN(c2ccc(Nc3ncc(C(N)=O)c(NC4CC4)n3)cc2)CC1 [Cerdulatinib]
MDA-MB-453 [1]
  drug sensitivity score: 4.4
MDA-MB-453 [2]
  drug sensitivity score: 0.3

## CCCCCCCCc1ccc(CCC(N)(CO)CO)cc1 [Fingolimod]
MDA-MB-453 [1]
  drug sensitivity score: 8.7
MDA-MB-453 [2]
  drug sensitivity score: 7.7

## NCC(=O)Nc1ccc(-n2nc(C(F)(F)F)cc2-c2ccc3c(ccc4ccccc43)c2)cc1
MDA-MB-453 [1]
  drug sensitivity score: 2.1
MDA-MB-453 [2]
  drug sensitivity score: 0

## COc1cc(C)c(/C=C/C(C)=C/C=C/C(C)=C/C(=O)O)c(C)c1C [Acitretin]
MDA-MB-453 [1]
  drug sensitivity score: 0.2
MDA-MB-453 [2]
  drug sensitivity score: 0

## COc1cccc2c1C(=O)c1c(O)c3c(c(O)c1C2=O)C[C@@](O)(C(=O)CO)C[C@@H]3O[C@H]1C[C@H](N)[C@H](O)[C@H](C)O1 [Doxorubicin]
MDA-MB-453 [1]
  drug sensitivity score: 6.8
MDA-MB-453 [2]
  drug sensitivity score: 5.1

## CC(C)[C@H](C(=O)Nc1ccc(C(=O)NO)cc1)c1ccccc1 [AR-42]
MDA-MB-453 [1]
  drug sensitivity score: 18.1
MDA-MB-453 [2]
  drug sensitivity score: 17.8

## Cc1cc(C)c(CNC(=O)c2cc(-c3ccc(CN4CCOCC4)cc3)cc3c2cnn3C2CCCC2)c(=O)[nH]1 [EPZ-5687]
MDA-MB-453 [1]
  drug sensitivity score: 0.5
MDA-MB-453 [2]
  drug sensitivity score: 0

## CCN(CC)CCOc1ccc(C(=C(Cl)c2ccccc2)c2ccccc2)cc1 [Clomifene]
MDA-MB-453 [1]
  drug sensitivity score: 5.8
MDA-MB-453 [2]
  drug sensitivity score: 4

## N#CC(c1ccnc(OCc2ccc(CN3CCOCC3)cc2)n1)c1nc2ccccc2s1 (configuration not stated) [Bentamapimod]
MDA-MB-453 [1]
  drug sensitivity score: 2.6
MDA-MB-453 [2]
  drug sensitivity score: 1.3

## Cn1cc(C2=C(c3cn(C4CCN(Cc5ccccn5)CC4)c4ccccc34)C(=O)NC2=O)c2ccccc21 [Enzastaurin]
MDA-MB-453 [1]
  drug sensitivity score: 0
MDA-MB-453 [2]
  drug sensitivity score: 0

## CN1CCC(COc2cnc(-c3cccc(Cn4nc(-c5cccc(C#N)c5)ccc4=O)c3)nc2)CC1 [Tepotinib]
MDA-MB-453 [1]
  drug sensitivity score: 0
MDA-MB-453 [2]
  drug sensitivity score: 0

## C/C=C1\NC(=O)[C@H]2CSSCC/C=C/[C@H](CC(=O)N[C@H](C(C)C)C(=O)N2)OC(=O)[C@H](C(C)C)NC1=O [Romidepsin]
MDA-MB-453 [1]
  drug sensitivity score: 32
MDA-MB-453 [2]
  drug sensitivity score: 33.3

## Cc1noc2c1-c1ccccc1C(c1ccc(Cl)cc1)=N[C@H]2CC(N)=O [CPI-0610]
MDA-MB-453 [1]
  drug sensitivity score: 9.4
MDA-MB-453 [2]
  drug sensitivity score: 10

## O=C(NOC[C@H](O)CO)c1ccc(F)c(F)c1Nc1ccc(I)cc1F
MDA-MB-453 [1]
  drug sensitivity score: 1.2
MDA-MB-453 [2]
  drug sensitivity score: 1.1

## Nc1ncn([C@@H]2O[C@H](CO)[C@@H](O)[C@H]2O)c(=O)n1 [Azacitidine]
MDA-MB-453 [1]
  drug sensitivity score: 0.5
MDA-MB-453 [2]
  drug sensitivity score: 0.4

## CN(Cc1cnc2nc(N)nc(N)c2n1)c1ccc(C(=O)N[C@@H](CCC(=O)O)C(=O)O)cc1 [Methotrexate]
MDA-MB-453 [1]
  drug sensitivity score: 1
MDA-MB-453 [2]
  drug sensitivity score: 0

## O=C(Nc1cccc(NC(=O)c2cccc(O)c2O)c1)c1cccc(O)c1O [MST-312]
MDA-MB-453 [1]
  drug sensitivity score: 10
MDA-MB-453 [2]
  drug sensitivity score: 9.7

## CN(C)CCCOc1ccc(-c2ccc3ncc4c(c3c2)n(C2CCOCC2)c(=O)n4C)cn1 [AZD0156]
MDA-MB-453 [1]
  drug sensitivity score: 1.6
MDA-MB-453 [2]
  drug sensitivity score: 3

## CN1CC[C@@H](NC(=O)Nc2ccc(C#N)cc2)C[C@@H]1c1nc2ccccc2[nH]1 [Glasdegib]
MDA-MB-453 [1]
  drug sensitivity score: 0
MDA-MB-453 [2]
  drug sensitivity score: 0

## O=C(Nc1ccncc1)C(=O)c1cn(Cc2ccc(Cl)cc2)c2ccccc12 [Indibulin]
MDA-MB-453 [1]
  drug sensitivity score: 9.1
MDA-MB-453 [2]
  drug sensitivity score: 5.3

## C[C@@H]1COCCN1c1cc(C2([S@](C)(=N)=O)CC2)nc(-c2cc[nH]c3nccc2-3)n1 [AZD6738]
MDA-MB-453 [1]
  drug sensitivity score: 11
MDA-MB-453 [2]
  drug sensitivity score: 10.7

## COc1cc2ncnc(Nc3ccc(F)c(Cl)c3)c2cc1NC(=O)/C=C/CN1CCCCC1 [Dacomitinib]
MDA-MB-453 [1]
  drug sensitivity score: 7.3
MDA-MB-453 [2]
  drug sensitivity score: 8.6

## C[C@]12CC[C@H](O)CC1=CC[C@@H]1[C@@H]2CC[C@]2(C)C(c3cccnc3)=CC[C@@H]12 [Abiraterone]
MDA-MB-453 [1]
  drug sensitivity score: 0
MDA-MB-453 [2]
  drug sensitivity score: 0

## Cc1nc(-c2cn3c(n2)-c2ccc(-c4cnn(C(C)(C)C(N)=O)c4)cc2OCC3)n(C(C)C)n1 [Taselisib]
MDA-MB-453 [1]
  drug sensitivity score: 17.9
MDA-MB-453 [2]
  drug sensitivity score: 19.3

## Cc1nn(C)c(COc2ccc(N3CCN(S(=O)(=O)N(C)C)CC3)cc2)c1-c1cccc2c(CCCOc3cccc4ccccc34)c(C(=O)O)n(CCN3CCOCC3)c12
MDA-MB-453 [1]
  drug sensitivity score: 5.8
MDA-MB-453 [2]
  drug sensitivity score: 5.8

## NC(=O)c1cccc(-c2cccc(OC(=O)NC3CCCCC3)c2)c1 [URB597]
MDA-MB-453 [1]
  drug sensitivity score: 0
MDA-MB-453 [2]
  drug sensitivity score: 0

## Nc1ncnc2c1nc(Cl)n2[C@@H]1O[C@H](CO)[C@@H](O)[C@H]1O [8-chloro-adenosine]
MDA-MB-453 [1]
  drug sensitivity score: 8.1
MDA-MB-453 [2]
  drug sensitivity score: 9.4

## CC1(C)NC(=O)N(c2ccc([N+](=O)[O-])c(C(F)(F)F)c2)C1=O [Nilutamide]
MDA-MB-453 [1]
  drug sensitivity score: 0
MDA-MB-453 [2]
  drug sensitivity score: 0

## C[C@]12CC[C@@H]3c4ccc(O)cc4C[C@@H](CCCCCCCCC[S+]([O-])CCCC(F)(F)C(F)(F)F)[C@H]3[C@@H]1CC[C@@H]2O (some centres not stated) [Fulvestrant]
MDA-MB-453 [1]
  drug sensitivity score: 0
MDA-MB-453 [2]
  drug sensitivity score: 0

## COc1cc(Nc2ncc(F)c(Nc3ccc4c(n3)N(COP(=O)(O)O)C(=O)C(C)(C)O4)n2)cc(OC)c1OC [Fostamatinib]
MDA-MB-453 [1]
  drug sensitivity score: 0.1
MDA-MB-453 [2]
  drug sensitivity score: 0

## Cc1[nH]c2ccccc2c1CCNCc1ccc(/C=C/C(=O)NO)cc1 [Panobinostat]
MDA-MB-453 [1]
  drug sensitivity score: 22.2
MDA-MB-453 [2]
  drug sensitivity score: 22.4

## CN(c1ncccc1CNc1nc(Nc2ccc3c(c2)CC(=O)N3)ncc1C(F)(F)F)S(C)(=O)=O
MDA-MB-453 [1]
  drug sensitivity score: 3.9
MDA-MB-453 [2]
  drug sensitivity score: 3.9

## CN(C)CCOc1ccc(/C(=C(/CCCl)c2ccccc2)c2ccccc2)cc1 [Toremifene]
MDA-MB-453 [1]
  drug sensitivity score: 6
MDA-MB-453 [2]
  drug sensitivity score: 4.1

## CCc1nc(C(N)=O)c(Nc2ccc(N3CCC(N4CCN(C)CC4)CC3)c(OC)c2)nc1NC1CCOCC1 [Gilteritinib]
MDA-MB-453 [1]
  drug sensitivity score: 0
MDA-MB-453 [2]
  drug sensitivity score: 0
